Measurements published in PMC4783263 (Molecular pharmaceutics, 2016).
pIC50: −log10 of the molar value. In brackets after ≈: the same amount, converted by molar mass. Where two headings read alike, the source gives them in different places. Each block holds one compound with its values, some of them ahead of it.

How the values were obtained:
SK-OV-3 cells = conditions: read-out: IC50 on SK-OV-3 cells; ABZ formulated in ethanol; cited from earlier work
[1] = system: OVCAR-3 (human ovarian adenocarcinoma); conditions: 150 mg/kg of ABZ 3 times a week for 4 weeks through IP; cited from earlier work
[2] = mice, repeated oral dosing of 30–40 mg/kg/day for 4–90 days; cited from earlier work
[3] = system: SKHEP-1 (human liver adenocarcinoma) xenografts; conditions: ABZ in sesame oil, xenografts on the flank of mice; cited from earlier work
glioblastoma multiforme = conditions: daily oral doses (50 and 150 mg/kg) of ABZ tablets mixed with 50% sesame oil; cited from earlier work
[4] = set-up: species or system Swiss Webster mice; conditions: mouse, in vivo; for AUC / Cmax / tmax: 3.2 mg/kg
[5] = cited from earlier work
[6] = system: Salmonella typhimurium TA1535; assay: Ames test; conditions: TA 1535, −S9, 1.5 µg/plate
[7] = system: Salmonella typhimurium TA100; assay: Ames test; conditions: TA 100, −S9, 1.5 µg/plate
[8] = in vivo; cited from earlier work

SMILES: CCCSc1ccc2nc(NC(=O)OC)[nH]c2c1 [ABZ, Albendazole]
pIC50 (SK-OV-3 cells): 5.41
malignant ascites (in words) [1]: suppression of malignant ascites was observed
toxicity (in words) [2]: no significant signs of toxicity
daily oral dose required to see an antitumor effect [3]: 300 mg/kg
mouse survival (in words) (glioblastoma multiforme): moderate improvements in mouse survival

Absolute Bioavailability [4]: 81%
AUC ([4]; ip): 2380 ng·h/mL
Cmax ([4]; ip): 410 ± 70 ng/mL
tmax ([4]; ip): 2 h
AUC ([4]; iv): 2940 ng·h/mL
Cmax ([4]; iv): 500 ± 90 ng/mL
tmax ([4]; iv): 2 h
SMILES: CCCS(=O)(=O)c1ccc2nc(NC(=O)OC)[nH]c2c1 [ABZSO2, Albendazole sulfone]

SMILES: O=C1N2CN3C(=O)N4CN5C(=O)N6CN7C(=O)N8CN9C(=O)N%10CN%11C(=O)N%12CN%13C(=O)N%14CN1C1C2N2CN%15C(=O)N(CN%16C(=O)N(CN%17C(=O)N(CN%18C(=O)N(CN%19C(=O)N(CN%20C(=O)N(CN1C2=O)C%14C%13%20)C%12C%11%19)C%10C9%18)C8C7%17)C6C5%16)C4C3%15 (stereo not shown) [CB[7]]
solubility in pure water ([5]; reported by Kim): 20 to 30 mM
solubility in pure water ([5]; reported by Nau): 5 mM (≈ 5.81 mg/mL)

SMILES: [N-]=[N+]=[N-].[Na+] [Sodium azide, Sodium Azide, reference compound]
revertant colonies, positive control [6]: Sodium azide 232 ± 6 colonies
revertant colonies, positive control ([6]; listed as sodium azide): 232 colonies
revertant colonies, positive control [7]: Sodium azide 167 ± 34 colonies
revertant colonies, positive control ([7]; listed as sodium azide): 167 colonies

SMILES: O=C(O)CCSC[C@H]1O[C@@H]2O[C@H]3[C@H](O)[C@@H](O)[C@@H](O[C@H]4[C@H](O)[C@@H](O)[C@@H](O[C@H]5[C@H](O)[C@@H](O)[C@@H](O[C@H]6[C@H](O)[C@@H](O)[C@@H](O[C@H]7[C@H](O)[C@@H](O)[C@@H](O[C@H]8[C@H](O)[C@@H](O)[C@@H](O[C@H]9[C@H](O)[C@@H](O)[C@@H](O[C@H]1[C@H](O)[C@H]2O)O[C@@H]9CSCCC(=O)O)O[C@@H]8CSCCC(=O)O)O[C@@H]7CSCCC(=O)O)O[C@@H]6CSCCC(=O)O)O[C@@H]5CSCCC(=O)O)O[C@@H]4CSCCC(=O)O)O[C@@H]3CSCCC(=O)O [sugammadex]
effect on QT interval (in words) [8]: no relevant effects of the compound on QT interval
